Test system: honeyeater HK3 (hexokinase 3)
Assay: hexokinase activity assay kit
Assay type: biochemical, Phylidonyris novaehollandiae
Conditions: 25 °C; 200 nM enzyme; glucose 0.009375-1 mM; substrate inhibition

- Km: 65.9 µM
SMILES: OC[C@H]1OC(O)[C@H](O)[C@@H](O)[C@@H]1O (stereo partly shown) [glucose]
